# Legend:
# Format in all cases: in vivo
# [1] = system: Stellaria media (Chickweed, common); assay: General postemergence herbicidal activity (Example 13); conditions: post-emergent spray, 70 g ai/ha, 14 DAA
# Experimental: (§1) Seeds or nutlets of the desired test plant species were planted in Sun Gro Metro-Mix® 360 planting mixture, which typically has a pH of 6.0 to 6.8 and an organic matter content of about 30 percent, in plastic pots with a surface area of 84.6 square centimeters (cm^2). When required to ensure good germination and healthy plants, a fungicide treatment and/or other chemical or physical treatment was applied. The plants were grown for 7-31 days (d) in a greenhouse with an approximate 15 hour (h) photoperiod which was maintained at about 23-29° C. during the day and 22-28° C. during the night. Nutrients and water were added on a regular basis and supplemental lighting was provided with overhead metal halide 1000-Watt lamps as necessary. The plants were employed for testing when they reached the first or second true leaf stage.
# (§2) Treatments consisted of esters of compounds 33 and 39 and F and G. Compound F is methyl 6-amino-2-(4-chloro-2-fluoro-3-methoxyphenyl)-5-methoxypyrimidine-4-carboxylate; and compound G is methyl 4-amino-3-chloro-6-(4-chloro-2-fluoro-3-methoxyphenyl)picolinate. A weighed amount, determined by the highest rate to be tested, of each test compound was placed in a 25 mL glass vial and was dissolved in 4 mL of a 97:3 v/v (volume/volume) mixture of acetone and dimethyl sulfoxide (DMSO) to obtain concentrated stock solutions. […] The concentrated stock solutions obtained were diluted with 20 mL of an aqueous mixture containing acetone, water, isopropyl alcohol, DMSO, Atplus 411F crop oil concentrate, and Triton® X-155 surfactant in a 48.5:39:10:1.5:1.0:0.02 v/v ratio to obtain spray solutions containing the highest application rates. Additional application rates were obtained by serial dilution of 12 mL of the high rate solution into a solution containing 2 mL of a 97:3 v/v (volume/volume) mixture of acetone and DMSO and 10 mL of an aqueous mixture containing acetone, water, isopropyl alcohol, DMSO, Atplus 411F crop oil concentrate, and Triton® X-155 surfactant in a 48.5:39:10:1.5:1.0:0.02 v/v ratio to obtain ½×, ¼×, ⅛× and 1/16× rates of the high rate. Compound requirements are based upon a 12 mL application volume at a rate of 187 liters per hectare (L/ha). Formulated compounds were applied to the plant material with an overhead Mandel track sprayer equipped with 8002E nozzles calibrated to deliver 187 L/ha over an application area of 0.503 square meters (m^2) at a spray height of 18 inches (43 cm) above the average plant canopy height. Control plants were sprayed in the same manner with the solvent blank.
# (§3) The treated plants and control plants were placed in a greenhouse as described above and watered by sub-irrigation to prevent wash-off of the test compounds. After 14 d, the condition of the test plants as compared with that of the untreated plants was determined visually and scored on a scale of 0 to 100 percent where 0 corresponds to no injury and 100 corresponds to complete kill.
# [2] = system: Viola tricolor (Pansy, wild); assay: as above; conditions: post-emergent spray, 70 g ai/ha, 14 DAA
# Experimental: as §1, §2, §3
# [3] = system: Oryza sativa (Rice); assay: as above; conditions: post-emergent spray, 70 g ai/ha, 14 DAA; crop (rice)
# Experimental: as §1, §2, §3
# [4] = system: Triticum aestivum (Wheat, spring); assay: as above; conditions: post-emergent spray, 70 g ai/ha, 14 DAA; crop (spring wheat)
# Experimental: as §1, §2, §3
# [5] = system: Avena fatua (Oat, wild); assay: Postemergence herbicidal activity in cereal crops (Example 14); conditions: wheat cropping systems, postemergence spray, 35 g ae/ha, 21 DAA
# [6] = system: Lolium multiflorum (Ryegrass, Italian); assay: as above; conditions: wheat cropping systems, postemergence spray, 17.5 g ae/ha, 21 DAA
# [7] = system: Setaria viridis (Foxtail, green); assay: as above; conditions: wheat cropping systems, postemergence spray, 17.5 g ae/ha, 21 DAA
smiles,measurement,setting,value
"COC(=O)c1nc(-c2ccc(Cl)c(OC)c2F)nc(N)c1OC [Compound F, methyl 6-amino-2-(4-chloro-2-fluoro-3-methoxyphenyl)-5-methoxypyrimidine-4-carboxylate, reference compound]",Visual Injury (%) STEME,[1],90%
same,Visual Injury (%) VIOTR,[2],80%
same,Visual Injury (%) ORYSA,[3],75%
same,Visual Injury (%) TRZAS,[4],70%
same,Visual Injury (%) AVEFA,[5],20%
same,Visual Injury (%) LOLMU,[6],60%
same,Visual Injury (%) SETVI,[7],85%
